Experimental data taken from PubChem BioAssay (NCI).
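Growth conditions: 96-well plates. Treatment: test compound, 48 hours, 5 concentrations. Analysis: linear interpolation between bracketing concentrations; unreached endpoints set to highest concentration. GI50 marks 50% less growth. Definition used: TGI = concentration required for complete inhibition of growth.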

What was measured:
Experiment in all cases: DTP human tumour cell line panel, 48 h
NCI-H23 lung = test system: NCI-H23 lung
NCI-H460 lung = test system: NCI-H460 lung
NCI-H522 lung = test system: NCI-H522 lung
NCI/ADR-RES ovarian = test system: NCI/ADR-RES ovarian
OVCAR-3 ovarian = test system: OVCAR-3 ovarian
OVCAR-4 ovarian = test system: OVCAR-4 ovarian
OVCAR-5 ovarian = test system: OVCAR-5 ovarian
OVCAR-8 ovarian = test system: OVCAR-8 ovarian
PC-3 prostate = test system: PC-3 prostate
RPMI-8226 leukemia = test system: RPMI-8226 leukemia
RXF 393 renal = test system: RXF 393 renal
SF-268 CNS = test system: SF-268 CNS
SF-295 CNS = test system: SF-295 CNS
SF-539 CNS = test system: SF-539 CNS
SK-MEL-2 melanoma = test system: SK-MEL-2 melanoma
SK-MEL-28 melanoma = test system: SK-MEL-28 melanoma
SK-MEL-5 melanoma = test system: SK-MEL-5 melanoma
SK-OV-3 ovarian = test system: SK-OV-3 ovarian
SN12C renal = test system: SN12C renal
SNB-19 CNS = test system: SNB-19 CNS
SNB-75 CNS = test system: SNB-75 CNS
SR leukemia = test system: SR leukemia
SW-620 colon = test system: SW-620 colon
T-47D breast = test system: T-47D breast
TK-10 renal = test system: TK-10 renal
U251 CNS = test system: U251 CNS
UACC-257 melanoma = test system: UACC-257 melanoma
UACC-62 melanoma = test system: UACC-62 melanoma
UO-31 renal = test system: UO-31 renal

## O=c1[nH]c2ccc(N=Cc3c(O)[nH]c4ccccc34)cc2[nH]1
NCI-H23 lung
  GI50: > 25 µM
  TGI: > 25 µM
NCI-H460 lung
  GI50: > 25 µM
  TGI: > 25 µM
NCI-H522 lung
  GI50: > 25 µM
  TGI: > 25 µM
NCI/ADR-RES ovarian
  GI50: > 25 µM
  TGI: > 25 µM
OVCAR-3 ovarian
  GI50: > 25 µM
  TGI: > 25 µM
OVCAR-4 ovarian
  GI50: > 25 µM
  TGI: > 25 µM
OVCAR-5 ovarian
  GI50: > 25 µM
  TGI: > 25 µM
OVCAR-8 ovarian
  GI50: > 25 µM
  TGI: > 25 µM
PC-3 prostate
  GI50: > 25 µM
  TGI: > 25 µM
RPMI-8226 leukemia
  GI50: > 25 µM
  TGI: > 25 µM
RXF 393 renal
  GI50: > 25 µM
  TGI: > 25 µM
SF-268 CNS
  GI50: > 13.8 µM
  TGI: > 25 µM
SF-295 CNS
  GI50: > 25 µM
  TGI: > 25 µM
SF-539 CNS
  GI50: > 25 µM
  TGI: > 25 µM
SK-MEL-2 melanoma
  GI50: > 25 µM
  TGI: > 25 µM
SK-MEL-28 melanoma
  GI50: > 25 µM
  TGI: > 25 µM
SK-MEL-5 melanoma
  GI50: > 25 µM
  TGI: > 25 µM
SK-OV-3 ovarian
  GI50: > 25 µM
  TGI: > 25 µM
SN12C renal
  GI50: > 25 µM
  TGI: > 25 µM
SNB-19 CNS
  GI50: > 25 µM
  TGI: > 25 µM
SNB-75 CNS
  GI50: > 14.7 µM
  TGI: > 25 µM
SR leukemia
  GI50: > 25 µM
  TGI: > 25 µM
SW-620 colon
  GI50: > 25 µM
  TGI: > 25 µM
T-47D breast
  GI50: > 25 µM
  TGI: > 25 µM
TK-10 renal
  GI50: > 25 µM
  TGI: > 25 µM
U251 CNS
  GI50: 18.6 µM
  TGI: > 25 µM
UACC-257 melanoma
  GI50: > 25 µM
  TGI: > 25 µM
UACC-62 melanoma
  GI50: > 25 µM
  TGI: > 25 µM
UO-31 renal
  GI50: > 25 µM
  TGI: > 25 µM
